Experimental data reported in US4616028A, “Substituted 2,3,4,9-tetrahydro-1H-carbazole-1-acetic acid derivatives, compositions and use” (American Home Products Corporation, priority 1985, dated 1986).
Where a name gives a salt, the structure may show the parent alone.

Experiments:
Adjuvant Edema = test: Preventative Adjuvant Edema (Freund's complete adjuvant, hind paw volume); assay type: in vivo, rat (male Sprague Dawley); settings: po; for ED50: ED50, rat (second results table)
Experimental: This test is a primary screen for anti-inflammatory drugs.
Male Sprague Dawley rats (180-200 g) are used. The animals have free access water but food is withdrawn 18 hours before testing.
Drug Preparations and Administration:
Freund's complete adjuvant is prepared by suspending 5 mg killed and dried Mycobacterium butyricum (Difco) in 1 ml liquid paraffin. The test compounds are dissolved in distilled water or suspended in distilled water with a few drops of Tween 80 according to their solubility. For primary screening all drugs are administrated by gastric lavage at the arbitrary dosage of 100 mg/kg, p.o. in a volume of 0.5 ml/100 g body weight to groups of 10 animals.
The method is essentially that described by Wax et al., J. Pharmacol. Exp. Ther., 192, 166-171 (1975). Groups of rats are injected intradermally in the left hind paw with 0.1 ml of Freund's complete adjuvant. The test compound or vehicle is administrated before the adjuvant, 24 hours and 48 hours after the adjuvant (day 0, 1 and 2). The injected hind paw volume is measured before the injection of adjuvant and 24 hrs. after the last drug administration (day 3) by means of a plethysmometer (Buxco Electronics Inc.). The difference between then hind paw volume on day 0 and day 3 represents the edema volume. Phenylbutazone (50 mg/kg, p.o.) is included as a positive control.
The mean edema volume (expressed as ml±SEM) is calculated for each group and the percentage protection conferred by the drug is calculated:
where c is the mean edema volume for the untreated controls and t is the mean edema volume for the drug treated group.

Phenylquinone Writhing = test: Phenylquinone-induced writhing in mice; assay type: in vivo, mouse (male Swiss albino); settings: Mus musculus, po; for ED50: ED50, mice (second results table); for inhibition in vivo at 25 mg/kg: mice (second results table), read-out: Phenylquinone Writhing in Mice percent inhibition
Experimental: A further test used to determine the utility of the compounds of the present invention is designated: DRUG EFFECTS ON PHENYLQUINONE-INDUCED WRITHING IN MICE […]
The objective of this test is to determine the ability of test drugs to inhibit the nociceptive (pain) response of mice injected with a chemical irritant. This test is a primary screen for both peripheral and centrally acting analgesic drugs.
Male Swiss albino mice (15-25 g). The animals are fasted for 18 hours prior to use but have free access to water.
(§1) Drug Preparation and Administration:
Drugs are dissolved or suspended according to their solubility in 0.5% methyl cellulose or 0.5% Tween 80. They are administered by gastric lavage in a volume of 5 ml/kg. For primary screening all drugs are administered at the arbitrary dosage of 200 mg/kg, p.o. to a group of 10 mice.
A modification of the method of Siegmund at el., Proc. Soc. Exp. Biol. Med., 95, 729-731 (1957) is used. Groups of 5 mice are dosed with the test compound or vehicle control. Sixty minutes later the animals are injected i.p. with 0.3 ml/20 g body weight of a 0.02% solution of phenylquinone (PBQ; 2-phenyl-1,4-benzoquinone) and placed in individual observation boxes. The numer of writhing or abdominal squirming movements made by each mouse during the following 15 min. period is counted. The experiment is repeated with another group of 5 mice and the mean number of writhes per mouse for a group of 10 mice is calculated.
Drug treated and vehicle-treated control groups are compared and the percentage protection conferred by the drug is calculated:
Percentage protection=(c-t)100/c […]
where c=mean number of writhes in the control group where t=mean number of writhes in the test drug group

inflamed paw = test: Paw Pressure Test in the Rat (Freund's adjuvant inflamed paw, pain threshold); assay type: in vivo, rat (male Sprague Dawley); settings: for ED50: po, ED50, rat (second results table)
Text: A still further test used to determine the utility of the compounds of the present invention is designated: PAW PRESSURE TEST IN THE RAT
The objective of this test is to assess the potency of peripheral and central acting drugs in inhibiting the reaction of rats to painful stimulation applied to an inflamed paw.
Male Sprague Dawley rats (180-200 g) are used. The animals are fasted overnight prior to drug administration.
as §1
Freund's Complete Adjuvant (FCA) is prepared by suspending 5 mg killed and dried mycobacterium butyricum (Difco) in 1 ml liquid paraffin. The test compounds are dissolved, or suspended with a few drops of Tween 80, in distilled water according to their solubility. They are administered by gastric gavage in a volume of 0.5 ml/100 g body weight to groups of 10 animals.
Ten rats are used per group. The method is essentially that described by Randall, et al., Arch. Int. Pharmacodyn. 111, 409 (1957) and the apparatus which is used to apply pressure to the paw (Analgesy-meter for the rat paw, Ugo Basile from Coulbourn Instruments) is a modification of that described by Gilfoil et al., J. Pharmacol, 142, 1 (1963). The instrument is basically a device which exerts a force that increases at a constant rate. The force is continuously monitored by a pointer moving along a linear scale and is measured in grams. The inflammatory reaction is induced in the left hind paw of rats by injecting 0.1 ml of Freund's adjuvant intradermally. The test compound or vehicle is administered 24 hours after the adjuvant. Prior to drug administration the rats are selected for their paw sensitivity. Rats responding to a pain threshold greater than 10 g applied to the inflamed paw are rejected. The pain threshold (vocalization) is determined 1 and 3 hours later in the inflamed paw and the normal paw of the treated and control groups. The higher of the 2 readings will be considered as representative of the drug effect on the pain threshold.
Presentation of results and Criteria for Activity:
Each animal which has a reading 1.5 times greater than the mean reading of the control-group will be considered as responsive to treatment. The number of animals showing an analgesic effect is then determined in each group.
The ED50 (dose which causes analgesia in 50% of the animals) using at least 3 doses is then determined, by the method described in Litchfield et al., J. Pharmacol. Exp. Ther., 96, 99 (1949).

[1] = 72 h, rat (second results table), read-out: Preventative Adjuvant Edema percent inhibition

Structure (SMILES) | inhibition in vivo at 25 mg/kg (Adjuvant Edema; [1]) | ED50 (Phenylquinone Writhing) | ED50 (inflamed paw) | inhibition in vivo at 5 mg/kg (Adjuvant Edema; 72 h, dose 5 mg/kg, rat (second results table), read-out: Preventative Adjuvant Edema percent inhibition) | ED50 (Adjuvant Edema) | inhibition in vivo at 25 mg/kg (Phenylquinone Writhing) | Paw Pressure Test in the Rat percent inhibition (inflamed paw; dose 1 mg/kg) | Paw Pressure Test in the Rat percent inhibition (inflamed paw; dose 5 mg/kg)
C=CC[C@@H]1CC[C@](CC)(CC(=O)O)c2[nH]c3cc(CC)ccc3c21 (relative stereo) [Example 7] | 36% | 10 mg/kg | 0.01 mg/kg | – | – | – | – | –
C=CC[C@@H]1CC[C@](CC)(CC(=O)O)c2[nH]c3ccc(CCCC)cc3c21 (relative stereo) [Example 8] | – | 10.6 mg/kg | 0.2 mg/kg | 56% | – | – | – | –
C=CC[C@@H]1CC[C@](CC)(CC(=O)O)c2[nH]c3c(C)cccc3c21 (relative stereo) [Example 11, cis-1-ethyl-2,3,4,9-tetrahydro-8-methyl-4-(2-propenyl)-1H-carbazole-1-acetic acid] | – | 8.3 mg/kg | 0.33 mg/kg | – | 8.5 mg/kg | – | – | –
C=CC[C@@H]1CC[C@](CC)(CC(=O)O)c2[nH]c3c(Cl)cccc3c21 (relative stereo) [Example 16] | – | 11 mg/kg | 0.89 mg/kg | – | 13 mg/kg | – | – | –
C=CC[C@@H]1CC[C@](CC)(CC(=O)O)c2[nH]c3cc(Cl)ccc3c21 (relative stereo) [Example 20] | – | 5.1 mg/kg | 0.38 mg/kg | – | 5.4 mg/kg | – | – | –
C=CC[C@@H]1CC[C@](CC)(CC(=O)O)c2[nH]c3c(C)c(F)ccc3c21 (relative stereo) [Example 29] | – | 12.3 mg/kg | 0.1 mg/kg | – | 6.4 mg/kg | – | – | –
C=CC[C@@H]1CC[C@](CC)(CC(=O)O)c2[nH]c3c(C)c(Cl)ccc3c21 (relative stereo) [Example 30, cis-7-chloro-1-ethyl-2,3,4,9-tetrahydro-8-methyl-4-(2-propenyl)-1H-carbazole-1-acetic acid] | – | 2.6 mg/kg | 0.007 mg/kg | – | 15 mg/kg | – | – | –
C=CC[C@@H]1CC[C@](CC)(CC(=O)O)c2[nH]c3c(C)ccc(C)c3c21 (relative stereo) [Example 31] | 42% | 2.3 mg/kg | 0.3 mg/kg | – | – | – | – | –
C=CC[C@@H]1CC[C@](CC)(CC(=O)O)c2[nH]c3c(Cl)c(Cl)ccc3c21 (relative stereo) [Example 32, cis-7,8-dichloro-1-ethyl-2,3,4,9-tetrahydro-4-(2-propenyl)-1H-carbazole-1-acetic acid] | 22% | 2 mg/kg | 0.08 mg/kg | – | – | – | – | –
C=CC[C@@H]1CC[C@](CC)(CC(=O)O)c2[nH]c3c(Br)ccc(C)c3c21 (relative stereo) [Example 33] | 27% | 4.5 mg/kg | 0.93 mg/kg | – | – | – | – | –
C=CC[C@@H]1CC[C@](CC)(CC(=O)O)c2[nH]c3c(Cl)ccc(C)c3c21 (relative stereo) [Example 34] | – | 7.6 mg/kg | 0.46 mg/kg | – | 2.6 mg/kg | – | – | –
C=CCC1CCC(C)(CC(=O)O)c2[nH]c3ccccc3c21 (stereo not shown) [Example 12] | – | 18.7 mg/kg | 1.9 mg/kg | – | 6 mg/kg | – | – | –
C=CC[C@@H]1CC[C@](CC)(CC(=O)O)c2[nH]c3c(CC)cccc3c21 [Example 44, (1R-cis)-1,8-Diethyl-2,3,4,9-tetrahydro-4-(2-propenyl)-1H-carbazole-1-acetic Acid Benzenemethanamine Salt (1:1)] | 0% | – | – | – | – | 5% | 30% | 40%
C=CC[C@H]1CC[C@@](CC)(CC(=O)O)c2[nH]c3c(CC)cccc3c21 [Example 45, (1S-cis)-1,8-Diethyl-2,3,4,9-tetrahydro-4-(2-propenyl)-1H-carbazole-1-acetic Acid Benzenemethanamine Salt (1:1)] | 54% | – | 0.011 mg/kg | – | – | 94% | – | –
